The values below are quoted from earlier work in US20150275270A1, “COMPOSITIONS AND METHODS FOR THE ANALYSIS OF DEGRADED NUCLEIC ACIDS” (ALTHEADX, INC., priority 2005, published 2015).

For the series the following is noted: clinical studies / post-marketing reports.

As for `CCc1ccc(CCOc2ccc(CC3SC(=O)NC3=O)cc2)nc1` (stereo not drawn) [pioglitazone], the “drug-induced hepatotoxicity (clinical reports)” value (shortened to “drug-induced hepatotoxicity”) is listed as “no evidence of drug-induced hepatotoxicity”.

On to `Cc1c(C)c2c(c(C)c1O)CCC(C)(COc1ccc(CC3SC(=O)NC3=O)cc1)O2` (stereo not drawn) [Troglitazone, troglitazone], for which the “drug-induced hepatotoxicity” value is reported as “severe idiosyncratic hepatocellular injury”.

Turning to `CN(CCOc1ccc(CC2SC(=O)NC2=O)cc1)c1ccccn1` (stereo not drawn) [rosiglitazone], the “drug-induced hepatotoxicity” value was “no evidence of drug-induced hepatotoxicity”.
